# Reference: US20130230459A1, “RADIOLABELLED mGluR2 PET LIGANDS” (Janssen Pharmaceuticals, Inc., priority 2010, published 2013)
# “And” between values parts separate entries of the source, which are not always exact repeats. Equal entries are not always repeated.
# Experiment: Biodistribution studies of 11C tracers
# Type: in vivo, Wistar rats
# Conditions: for SUV Blood / SUV Cerebellum / SUV Cerebrum total / SUV Cortex / SUV Hippocampus / SUV Striatum: normalized for body weight; for % ID present in the carcass: at all time points examined
# Method: Biodistribution studies were carried out in healthy male Wistar rats (body weight 200-450 g) at 2 min, 30 min and 60 min post injection (p.i.) (n=3/time point). Rats were injected with about 11 MBq (2 min, 30 min analysis) or 22 MBq (60 min analysis) of the tracer via tail vein under anesthesia (2.5% isoflurane in O2 at 1 L/min flow rate) and sacrificed by decapitation at above specified time points. Blood and major organs were collected in tared tubes and weighed. The radioactivity in blood, organs and other body parts was measured using an automated gamma counter. The distribution of radioactivity in different parts of the body at different time points p.i. of the tracer was calculated and expressed as percentage of injected dose (% ID), and as percentage of injected dose per gram tissue (% ID/g) for the selected organs. % ID is calculated as cpm in organ/total cpm recovered. For calculation of total radioactivity in blood, blood mass was assumed to be 7% of the body mass.
smiles,measurement,setting,value
"[11CH3]Oc1c(F)ccc(F)c1C1CCN(c2ccn3c(CC4CC4)nnc3c2C(F)(F)F)CC1 [[^11C]B-3, 3-(cyclopropylmethyl)-7-[4-[3,6-difluoro-2-[^11C]methoxyphenyl]-1-piperidinyl]-8-(trifluoromethyl)-1,2,4-triazolo[4,3-a]pyridine]",% ID Blood,2 min p.i.,8.5 % ID and 8.5 ± 1.9 % ID
same,% ID Carcass,2 min p.i.,36.0 ± 0.7 % ID
same,% ID Cerebellum,2 min p.i.,0.17 % ID and 0.165 ± 0.009 % ID
same,% ID Cerebrum total,2 min p.i.,0.54 % ID and 0.536 ± 0.048 % ID
same,% ID Cortex,2 min p.i.,0.062 ± 0.009 % ID
same,% ID Heart,2 min p.i.,4.8 ± 0.4 % ID
same,% ID Hippocampus,2 min p.i.,0.017 ± 0.002 % ID
same,% ID Intestines,2 min p.i.,9.4 ± 0.8 % ID
same,% ID Kidneys,2 min p.i.,8.8 ± 0.7 % ID
same,% ID Liver,2 min p.i.,28.7 ± 2.1 % ID
same,% ID Lungs,2 min p.i.,3.7 ± 1.7 % ID
same,% ID Rest of cerebrum,2 min p.i.,0.457 ± 0.050 % ID
same,% ID Spleen + Pancreas,2 min p.i.,2.0 ± 0.1 % ID
same,% ID Stomach,2 min p.i.,1.5 ± 0.4 % ID
same,% ID Striatum,2 min p.i.,0.028 ± 0.002 % ID
same,% ID Urine,2 min p.i.,0.1 ± 0.0 % ID
same,Total brain uptake,2 min p.i.,0.75 % ID and 0.75 ± 0.0 % ID
same,SUV Blood,2 min p.i.,1.20 ± 0.03
same,SUV Cerebellum,2 min p.i.,1.54 and 1.54 ± 0.01
same,SUV Cerebrum total,2 min p.i.,1.09 ± 0.01
same,SUV Cortex,2 min p.i.,1.03 ± 0.00
same,SUV Hippocampus,2 min p.i.,0.85 ± 0.01
same,SUV Striatum,2 min p.i.,0.99 ± 0.00
same,% ID Blood,30 min p.i.,2.6 ± 0.7 % ID
same,% ID Carcass,30 min p.i.,46.7 ± 7.8 % ID
same,% ID Cerebellum,30 min p.i.,0.142 ± 0.042 % ID
same,% ID Cerebrum total,30 min p.i.,0.489 ± 0.121 % ID
same,% ID Cortex,30 min p.i.,0.071 ± 0.031 % ID
same,% ID Heart,30 min p.i.,1.7 ± 0.7 % ID
same,% ID Hippocampus,30 min p.i.,0.019 ± 0.006 % ID
same,% ID Intestines,30 min p.i.,8.9 ± 1.4 % ID
same,% ID Kidneys,30 min p.i.,3.4 ± 1.0 % ID
same,% ID Liver,30 min p.i.,31.3 ± 9.7 % ID
same,% ID Lungs,30 min p.i.,0.5 ± 0.2 % ID
same,% ID Rest of cerebrum,30 min p.i.,0.373 ± 0.084 % ID
same,% ID Spleen + Pancreas,30 min p.i.,1.1 ± 0.3 % ID
same,% ID Stomach,30 min p.i.,3.8 ± 1.4 % ID
same,% ID Striatum,30 min p.i.,0.027 ± 0.007 % ID
same,% ID Urine,30 min p.i.,0.5 ± 0.1 % ID
same,Total brain uptake,30 min p.i.,0.64 ± 0.2 % ID
same,SUV Blood,30 min p.i.,0.40 ± 0.01
same,SUV Cerebellum,30 min p.i.,1.54 and 1.54 ± 0.04
same,SUV Cerebrum total,30 min p.i.,1.11 ± 0.03
same,SUV Cortex,30 min p.i.,1.00 ± 0.03
same,SUV Hippocampus,30 min p.i.,0.84 ± 0.02
same,SUV Striatum,30 min p.i.,1.15 ± 0.04
same,% ID Blood,60 min p.i.,2.9 % ID and 2.9 ± 0.4 % ID
same,% ID Carcass,60 min p.i.,44.2 ± 10.9 % ID
same,% ID Cerebellum,60 min p.i.,0.142 ± 0.050 % ID
same,% ID Cerebrum total,60 min p.i.,0.499 ± 0.168 % ID
same,% ID Cortex,60 min p.i.,0.069 ± 0.027 % ID
same,% ID Heart,60 min p.i.,1.1 ± 0.6 % ID
same,% ID Hippocampus,60 min p.i.,0.023 ± 0.011 % ID
same,% ID Intestines,60 min p.i.,14.8 ± 1.7 % ID
same,% ID Kidneys,60 min p.i.,2.4 ± 0.9 % ID
same,% ID Liver,60 min p.i.,23.6 ± 12.9 % ID
same,% ID Lungs,60 min p.i.,0.7 ± 0.3 % ID
same,% ID Rest of cerebrum,60 min p.i.,0.371 ± 0.119 % ID
same,% ID Spleen + Pancreas,60 min p.i.,0.9 ± 0.3 % ID
same,% ID Stomach,60 min p.i.,9.6 ± 2.2 % ID
same,% ID Striatum,60 min p.i.,0.036 ± 0.014 % ID
same,% ID Urine,60 min p.i.,0.4 ± 0.1 % ID
same,% ID present in liver and intestines,60 min p.i.,38.4 % ID
same,% ID present in the urinary system,60 min p.i.,2.8 % ID
same,Total brain uptake,60 min p.i.,0.66 ± 0.2 % ID
same,SUV Blood,60 min p.i.,0.40 ± 0.01
same,SUV Cerebellum,60 min p.i.,1.84 ± 0.07
same,SUV Cerebrum total,60 min p.i.,1.38 ± 0.05
same,SUV Cortex,60 min p.i.,1.13 ± 0.04
same,SUV Hippocampus,60 min p.i.,1.11 ± 0.04
same,SUV Striatum,60 min p.i.,1.76 ± 0.07
same,% ID present in the carcass,,~42 % ID
"[11CH3]Oc1cccc(F)c1C1CCN(c2ccn3c(CC4CC4)nnc3c2Cl)CC1 [[^11C]B-6, 8-chloro-3-(cyclopropylmethyl)-7-[4-[2-fluoro-6-[^11C]methoxyphenyl]-1-piperidinyl]-1,2,4-triazolo[4,3-a]pyridine]",% ID Blood,2 min p.i.,6.5 % ID and 6.5 ± 0.9 % ID
same,% ID Carcass,2 min p.i.,43.5 ± 1.4 % ID
same,% ID Cerebellum,2 min p.i.,0.17 % ID and 0.170 ± 0.012 % ID
same,% ID Cerebrum total,2 min p.i.,0.45 % ID and 0.446 ± 0.073 % ID
same,% ID Cortex,2 min p.i.,0.068 ± 0.015 % ID
same,% ID Heart,2 min p.i.,4.1 ± 0.1 % ID
same,% ID Hippocampus,2 min p.i.,0.019 ± 0.000 % ID
same,% ID Intestines,2 min p.i.,7.6 ± 0.5 % ID
same,% ID Kidneys,2 min p.i.,6.8 ± 0.7 % ID
same,% ID Liver,2 min p.i.,30.2 ± 0.9 % ID
same,% ID Lungs,2 min p.i.,1.8 ± 0.5 % ID
same,% ID Rest of cerebrum,2 min p.i.,0.359 ± 0.086 % ID
same,% ID Spleen + Pancreas,2 min p.i.,1.4 ± 0.1 % ID
same,% ID Stomach,2 min p.i.,1.3 ± 0.2 % ID
same,% ID Striatum,2 min p.i.,0.022 ± 0.002 % ID
same,% ID Urine,2 min p.i.,0.1 ± 0.0 % ID
same,Total brain uptake,2 min p.i.,0.65 % ID and 0.65 ± 0.1 % ID
same,SUV Blood,2 min p.i.,0.90 ± 0.01
same,SUV Cerebellum,2 min p.i.,1.62 ± 0.00
same,SUV Cerebrum total,2 min p.i.,1.00 ± 0.02
same,SUV Cortex,2 min p.i.,1.04 ± 0.00
same,SUV Hippocampus,2 min p.i.,0.86 ± 0.01
same,SUV Striatum,2 min p.i.,1.01 ± 0.01
same,% ID Blood,30 min p.i.,2.9 ± 0.1 % ID
same,% ID Carcass,30 min p.i.,61.8 ± 2.1 % ID
same,% ID Cerebellum,30 min p.i.,0.201 ± 0.016 % ID
same,% ID Cerebrum total,30 min p.i.,0.723 ± 0.103 % ID
same,% ID Cortex,30 min p.i.,0.078 ± 0.020 % ID
same,% ID Heart,30 min p.i.,1.7 ± 0.2 % ID
same,% ID Hippocampus,30 min p.i.,0.028 ± 0.006 % ID
same,% ID Intestines,30 min p.i.,9.9 ± 1.4 % ID
same,% ID Kidneys,30 min p.i.,3.0 ± 0.4 % ID
same,% ID Liver,30 min p.i.,17.0 ± 1.1 % ID
same,% ID Lungs,30 min p.i.,0.8 ± 0.1 % ID
same,% ID Rest of cerebrum,30 min p.i.,0.580 ± 0.081 % ID
same,% ID Spleen + Pancreas,30 min p.i.,1.0 ± 0.2 % ID
same,% ID Stomach,30 min p.i.,2.3 ± 0.5 % ID
same,% ID Striatum,30 min p.i.,0.037 ± 0.005 % ID
same,% ID Urine,30 min p.i.,0.3 ± 0.1 % ID
same,Total brain uptake,30 min p.i.,0.95 ± 0.1 % ID
same,SUV Blood,30 min p.i.,0.40 ± 0.00
same,SUV Cerebellum,30 min p.i.,2.28 and 2.28 ± 0.01
same,SUV Cerebrum total,30 min p.i.,1.66 ± 0.02
same,SUV Cortex,30 min p.i.,1.47 ± 0.03
same,SUV Hippocampus,30 min p.i.,1.36 ± 0.01
same,SUV Striatum,30 min p.i.,1.70 ± 0.01
same,% ID Blood,60 min p.i.,3.6 % ID and 3.6 ± 0.2 % ID
same,% ID Carcass,60 min p.i.,57.8 ± 1.9 % ID
same,% ID Cerebellum,60 min p.i.,0.155 ± 0.024 % ID
same,% ID Cerebrum total,60 min p.i.,0.597 ± 0.062 % ID
same,% ID Cortex,60 min p.i.,0.074 ± 0.021 % ID
same,% ID Heart,60 min p.i.,1.0 ± 0.1 % ID
same,% ID Hippocampus,60 min p.i.,0.024 ± 0.003 % ID
same,% ID Intestines,60 min p.i.,12.0 ± 1.1 % ID
same,% ID Kidneys,60 min p.i.,1.9 ± 0.3 % ID
same,% ID Liver,60 min p.i.,18.6 ± 1.0 % ID
same,% ID Lungs,60 min p.i.,0.6 ± 0.1 % ID
same,% ID Rest of cerebrum,60 min p.i.,0.468 ± 0.054 % ID
same,% ID Spleen + Pancreas,60 min p.i.,0.8 ± 0.0 % ID
same,% ID Stomach,60 min p.i.,4.3 ± 1.8 % ID
same,% ID Striatum,60 min p.i.,0.031 ± 0.003 % ID
same,% ID Urine,60 min p.i.,0.6 ± 0.1 % ID
same,% ID present in liver and intestines,60 min p.i.,30.6 % ID
same,% ID present in the urinary system,60 min p.i.,2.5 % ID
same,Total brain uptake,60 min p.i.,0.76 ± 0.1 % ID
same,SUV Blood,60 min p.i.,0.50 ± 0.00
same,SUV Cerebellum,60 min p.i.,1.57 ± 0.01
same,SUV Cerebrum total,60 min p.i.,1.24 ± 0.01
same,SUV Cortex,60 min p.i.,1.01 ± 0.01
same,SUV Hippocampus,60 min p.i.,1.02 ± 0.01
same,SUV Striatum,60 min p.i.,1.46 ± 0.01
same,% ID present in the carcass,,~54 % ID
